Activity calls are given as the source filed them. No cut-off for these calls is given here.

This experiment has as its target Bromodomain-containing protein 4 (Homo sapiens, UniProt O60885). The experiment can be described thus: Inhibition of recombinant human N-terminal His6-tagged Brd4-BD1 expressed in Escherichia coli BL21(DE3) by LOGSY NMR titration method.

Turning to `Cc1nnc2ccc(-c3ccccc3)nn12`, the inhibition entry is “Active”. With `CNc1cc(N(C)Cc2ccccc2)nn2c(C)nnc12`, the inhibition entry is “Active”. Still for that read-out and setting: under `Cc1nnc2c(N)cc(-c3cnn(C)c3Oc3ccccc3)nn12` stands “Active”.

As usually defined, the IC50 is the concentration that gives 50% inhibition. Turning to `COc1ccc(-c2ccc3nnc(C)n3n2)cc1OC`, the IC50 was 24 µM. Same read-out and setting: the same measure for `Cc1nnc2ccc(-c3cnn(C)c3Oc3ccccc3)nn12`: 2 µM. `Cc1nnc2ccc(N(C)Cc3ccc(F)c(F)c3)nn12`: the inhibition result is “Active”. On the same count and under the same terms, under `CNc1cc(-c2ccccc2)nn2c(C)nnc12` stands “Active”.
